This is an account of results in patent publication US8940911B2, “Squarylated lactones inhibitors for bacterial biofilm formation” (Syracuse University, priority 2012, dated 2015).

One series concerns E. coli RP437. In words: Static biofilm inhibition assay (crystal violet, 96-well plate). The series is classed as cell-based, Escherichia coli. Conditions: E. coli RP437, 200 μM, 24 h, crystal violet. From the text: A primary objective was to test the ability of SHLs to inhibit biofilm formation against E. coli RP437. […] Viable controls were required that would allow us to measure and compare the activity of SHLs against known biofilm inhibitors and naturally occurring AI-1 signal molecules. […] The activity of this class of molecule is presumably similar or even marginally higher than that of brominated furanone (BF8 48) (56%).
For the present invention, the E. coli RP437 biofilms were allowed to develop in a 96-well plate in the absence or presence of SHLs. After 24 hours, the planktonic bacteria and remaining media were removed and the crystal violet was introduced in the wells. The bacterial biofilm being formed at the air/liquid interface on the inside wall of the well is stained readily by crystal violet. After removing the excess crystal violet and repeatedly washing the wells with water, followed by ethanol solubilization of the dye, allows quantification of the amount of biofilm by spectrophotometry (OD600). […] We believe that the observed biofilm inhibition activity cannot be directly attributed to any predominant structural feature inherent in the SHLs. Rather, the small deviations in the structures of the SHLs and their effect on biofilm formation could be a result of the nature of non-covalent forces that arise during SHLs presumed binding within the receptor active site.
An overnight culture of E. coli RP437 grown in LB media (OD600 of 1.0) containing streptomycin (10 μg/mL) was subsequently sub-cultured to an OD600 of 0.04 (1:100 dilution with LB media). To each well in the solvent resistant polypropylene or polystyrene-based 96-well microtiter plates were added 200 μL of the sub-cultured bacteria respectively. To each of the wells containing the bacterial cultures varying concentrations of the synthetic molecules was added and the contents in each well were gently mixed. Control wells comprised of untreated bacterial culture (four replicates) and the LB media (four replicates). The microtiter plates were then covered and wrapped in a Saran wrap and allowed to incubate at 37° C. for 24 hours without shaking. After that time, the microbial medium in each well was discarded and the remaining biofilm that was formed during incubation was stained with 225 μL of a 0.1% crystal violet solution and allowed to incubate at room temperature for 30 minutes. After the incubation period, the crystal violet was discarded and the wells were gently washed twice with water (230-250 μL) and allowed to air dry for 15-20 minutes. For the purpose of solubilizing the remaining crystal violet that had stained the biofilm present in the interior of the 96-well plates, a 250 μL solution of 95% ethanol was used. After the addition of 95% ethanol, the contents of each well were mixed thoroughly and allowed to sit for 15-20 minutes. Finally, the biofilm formed was quantified by transferring 100 μL of the ethanol solution into a fresh polystyrene microtiter dish that was subsequently read by an absorbance plate reader (A600). After elimination of background absorbance, the percentage inhibition was calculated by dividing the amount of absorbed crystal violet in wells that contained the synthetic compound by the amount of absorbed crystal violet in wells that contained bacteria only (control). Biofilm assays for each synthetic compound were repeated two to three times and each concentration considered for inhibition studies were tested over four replicates.

For series [1], the system named is P. aeruginosa PAO1-GFP/pSMC2. As to the kind of experiment: Confocal microscopy analysis of P. aeruginosa biofilms (COMSTAT). The series is classed as cell-based, Pseudomonas aeruginosa. The note with it: 400 μM, 24 h at 37° C., CLSM/COMSTAT. The method, then:
FIG. 13 is a series of representative confocal laser scanning microscopy images of biofilm formation by P. aeruginosa PAO1-GFP/pSMC2 in the absence of inhibitor (A); and in the presence of 400 μM BF4 49 (B); 400 μM hexyl-SHL 9 (C); 400 μM tolyl-SHL 11 (D); and 400 μM thienyl-SHL 12 (E).
FIG. 14 is a graph of quantification of biofilm formation by P. aeruginosa PAO1-GFP/pSMC2 in the absence and presence of 400 μM SHLs 9, 11 and 12. Biomass, mean thickness, and surface area are quantified from fluorescence image using COMSTAT software. Z-Stack images from at least four different locations were used. Values are normalized by that of the brominated furanone-free control.
We developed the biofilms consisting of […] P. aeruginosa on stainless steel coupons (316 L, ⅜ in×⅜ in.) for 24 h at 37° C. in the absence or presence of 400 μM hexyl-SHL 9, tolyl-SHL 11, thienyl-SHL 12, and BF4 49. All the samples were analyzed with CLSM (see FIG. 13) and the biomass, surface area, and mean thickness of biofilms were calculated using the COMSTAT software. Tolyl-SHL 11 reduced the biomass by ˜90%, similar to that of the toxic BF4 49.

A further series concerns SK-N-SH cells. In words: Human neuroblastoma cancer cell cytotoxicity assay (CCK-8). The note with it: 200 or 300 μM, 1 h exposure, read after 24 h. The format is cell-based. The method, then:
After examining the efficacy of SHLs at inhibiting biofilm, dispersing established biofilms, and reducing the maximum thickness of biofilms without being toxic to the planktonic bacterial cells, we tested the cytotoxicity of the key potent SHLs on the human neuroblastoma cancer cell line SK-N-SH. These studies were conducted such that the SK-N-SH cells were subjected to the maximum concentrations of the key potent SHLs tested on bacteria.
A previously grown T-flask of SK-N-SH cells was observed under a microscope to confirm the confluence of the cells. Next, the old media was discarded and the adherent cells were washed with ˜10 mL of MEM(−). The wash was discarded and 2 mL of Trypsin-EDTA solution was added to the T-flask and incubated for 10 minutes at 37° C. and at 5% atmosphere of CO2. Afterwards, the flask was viewed under a microscope to determine if the cells were suspended in the solution. Subsequently, ˜8 mL of MEM(+) was added to the flask and carefully mixed via pipette to break-up any large clusters of cells. 100 μL of the culture was added to an Eppendorf tube and combined with 100 μL of […]. A hemocytometer and glass cover slide was carefully cleaned with a kimwipe and ethanol. Placing the glass cover slide on top of the hemocytometer, 10 μL of the mixture in the Eppendorf tube was pipetted into the two grooves on the hemocytometer, avoiding the generation of bubbles. The hemocytometer was viewed one chamber at time under a microscope and the live cells were counted using the hemocytometer cell counting method. The remaining cell culture in the T-flask was diluted with MEM(+) to 25 mL such that there would be ˜5000 cells/mL. 100 μL of the culture was placed into wells on a 96 well plate such that one column had only MEM(+) and the wells on the outer perimeter of the plate were left empty. Four plates were made in this manner so that there would be plates for times 0, 24, 48, and 72 h. The plate was then incubated for 24 h at 37° C. and at 5% atmosphere of CO2. Subsequently, the old media was discarded and the wells were subjected to either 200 μM or 300 μM solutions of compounds 3, 4, 8, and 46 in MEM(+) (100 μL) such that one column still contained only MEM(+) and one column contained MEM(+) and untreated cells. The plate was incubated for 1 h and then the solutions were discarded and fresh MEM(+) media was added (100 μL). Each plate was then incubated for the desired time (0, 24, 48, or 72 h). After incubation, 10 μL of CCK-8 solution was added to each well and then the plate was incubated for 2 h followed by reading the OD450 with a microplate reader.

Series [2] deals with DsRed-express-labeled E. coli RP437. In words: Confocal imaging of E. coli biofilms on stainless steel coupons (COMSTAT). The series is classed as cell-based, Escherichia coli. Conditions: 200 μM, 24 h at 37° C., CLSM/COMSTAT. The method, then: The effects of SHLs upon the bacterial biofilm were examined; more specifically, the effect of SHLs upon the biofilm architecture. […] These studies were conducted by static biofilm assays employing crystal violet staining that indicates the total biomass that resides within a biofilm but provides no indication regarding the topology of the biofilms. To elucidate the topological features assumed by the E. coli RP437 biofilm in the presence of SHLs and BF8 48, studies of biofilms consisting of DsRed-express-labeled E. coli RP437 that is fluorescent and can be easily visualized by confocal laser scanning microscopy (CLSM) were performed. […] Further, the stacked images in vinyl-SHL 3 indicating the maximum thickness of the biofilm is considerably smaller than the biofilms in BF8 48 and the untreated E. coli samples. We developed the biofilms consisting of DsRed-express-labeled E. coli on stainless steel coupons (316 L, 1 in×1 in.) for 24 h at 37° C. that were treated with BF8 48 or SHLs or were left untreated. All the samples were analyzed with CLSM (see FIG. 8) and the maximum thickness of biofilms calculated using the COMSTAT software. […] Moreover, butyl-SHL 8 and butoxy-SCPA 46 reduce the biofilm thickness by 38% and 27%, respectively.
An overnight culture of E. coli RP437 pRSH103 grown in LB media (OD600 of 1.0) containing tetracycline (3 μg/mL) was subsequently sub-cultured to an OD600 of 0.04 (1:100 dilution with LB media). To each well in the solvent resistant polypropylene or polystyrene-based 24-well microtiter plates was added 200 μM synthetic molecules in DMSO solution respectively. In addition, to each of the wells containing the known concentrations of synthetic molecules was added 2 mL of the sub-cultured bacteria and the contents in each well were gently mixed. […] The fluorescent emission was detected with a LP 560 nm emission filter. The coupons were gently placed upside down on a microscope cover glass (24×60 mm, No. 2, VWR International LLC, West Chester, Pa., USA) and analyzed with CLSM. […]

As to `CCCCCCc1c(NC2CCOC2=O)c(=O)c1=O` (stereo not drawn) [hexyl-SHL 9], in the series on E. coli RP437, the “inhibition of biofilm formation” value worked out at 42%. The “P. aeruginosa biofilm inhibition (in words)” value in series [1] is reported as “mild”.

In the case of `C=Cc1c(NC2CCOC2=O)c(=O)c1=O` [vinyl-L-SHL 4], the “biofilm inhibition (in words)” value with E. coli RP437 is recorded as “weaker biofilm inhibition”. Moreover, in the series on SK-N-SH cells, the “cytotoxicity on human neuroblastoma cancer cells (in words)” value is listed as “toxic”.

Take `CCCCc1c(NC2CCOC2=O)c(=O)c1=O` (stereo not drawn) [butyl-SHL 8]: in the series on E. coli RP437, the “inhibition of biofilm formation” value is given as 48%. Further, the “reduction of the maximum thickness of biofilm” value in series [2] was 38%. In addition, in the series with SK-N-SH cells, the “cytotoxicity on human neuroblastoma cancer cells (in words)” value is “does not appear to be toxic”.

Take `C=CCc1c(NC2CCOC2=O)c(=O)c1=O` (stereo not drawn) [allyl-SHL2]: the “biofilm inhibition (in words)” value with E. coli RP437 is on record as “Poor biofilm inhibition”.

As for `CCCCOc1c(OCCCC)c(=O)c1=O` [BSQ 44, 3,4-dibutoxy-cyclobut-3-ene-1,2-dione, reference compound], in the series on E. coli RP437, the “biofilm inhibition (in words)” value is listed as “Poor biofilm inhibition”.

On to `O=C1OCCC1Nc1c(-c2ccccc2)c(=O)c1=O` (stereo not drawn) [phenyl-SHL 10], for which the “inhibition of biofilm formation” value with E. coli RP437 came to 44%.

As for `CCCCOc1c(NC2CCOC2=O)c(=O)c1=O` (stereo not drawn) [butoxy-SHL 1], the “biofilm inhibition (in words)” value in the series with E. coli RP437 is recorded as “weaker biofilm inhibition”.

Regarding `CC(C)Oc1c(OC(C)C)c(=O)c1=O` [IPSQ 42, reference compound], in the series with E. coli RP437, the “biofilm inhibition (in words)” value is “Poor biofilm inhibition”.
